Measurements from US20080262097A1, “Formulations” (priority 2005, published 2008).
In brackets after ≈: the same amount, converted by molar mass. Where two headings read alike, the source gives them in different places.

How the values were obtained:
[1] = tested on: S. epidermidis (NCTC 11047); test: Disc diffusion assay (DDA); format: cell-based; conditions: zone diameter, 200 μg per disc
Experimental: (§1) The staphylococci and enterococci were cultured and maintained on Mueller-Hinton Medium (agar and broth) at pH 7.2; they were incubated aerobically at 37° C. for 24 hours.
(§2) A sterile paper disc was impregnated with a sample of the test compound and a minimum of 30 minutes allowed for the solvents to evaporate as far as possible. The disc was then placed on an agar plate onto which the test micro-organism had been inoculated. The plate was then incubated under the conditions described above, following which it was examined visually for signs of bacterial growth. If the test compound had antimicrobial activity, a circular zone of no growth would be obtained around the disc. The diameter of this zone of “inhibition” was measured using a ProtoCOL™ automated zone sizer (Synbiosis, Cambridge, UK). In general, a greater diameter and/or area of the zone of inhibition indicates a greater antimicrobial activity in the relevant test compound, although other factors such as test compound mobility through the agar gel may also influence the result.
(§3) The area of the zone of inhibition was calculated from the measured zone diameter (D) using the formula π(D/2)^2.

[2] = tested on: S. saprophyticus NCTC 7292; test: Disc diffusion assay (DDA); format: cell-based; conditions: zone diameter, 200 μg per disc
Experimental: as §1, §2, §3

[3] = tested on: Staphylococcus aureus ATCC 12600; test: Disc diffusion assay (DDA); format: cell-based; conditions: zone diameter, 200 μg per disc
Experimental: as §1, §2, §3

[4] = tested on: Staphylococcus auricularis ATCC 33753; test: Disc diffusion assay (DDA); format: cell-based; conditions: zone diameter, 200 μg per disc
Experimental: as §1, §2, §3

[5] = tested on: Staphylococcus capitis ATCC 27840; test: Disc diffusion assay (DDA); format: cell-based; conditions: zone diameter, 200 μg per disc
Experimental: as §1, §2, §3

[6] = tested on: Staphylococcus cohnii ATCC 29974; test: Disc diffusion assay (DDA); format: cell-based; conditions: zone diameter, 200 μg per disc
Experimental: as §1, §2, §3

[7] = tested on: Staphylococcus haemolyticus ATCC 29970; test: Disc diffusion assay (DDA); format: cell-based; conditions: zone diameter, 200 μg per disc
Experimental: as §1, §2, §3

[8] = tested on: Staphylococcus hominis ATCC 27844; test: Disc diffusion assay (DDA); format: cell-based; conditions: zone diameter, 200 μg per disc
Experimental: as §1, §2, §3

[9] = tested on: Staphylococcus simulans ATCC 27848; test: Disc diffusion assay (DDA); format: cell-based; conditions: zone diameter, 200 μg per disc
Experimental: as §1, §2, §3

[10] = tested on: Staphylococcus warneri ATCC 27836; test: Disc diffusion assay (DDA); format: cell-based; conditions: zone diameter, 200 μg per disc
Experimental: as §1, §2, §3

[11] = tested on: Staphylococcus xylosus ATCC 29971; test: Disc diffusion assay (DDA); format: cell-based; conditions: zone diameter, 200 μg per disc
Experimental: as §1, §2, §3

P. granulosum NCTC 11865 = test: MIC assay; format: cell-based; conditions: P. granulosum NCTC 11865 (resistance None)
Experimental: (§4) The Propionibacterium spp organisms were cultured and maintained on Wilkins-Chalgren Anaerobe Medium (agar and broth) at pH 6.0; cultures were incubated anaerobically at 37° C. for 72 hours.
(§5) This is a standard international method for quantitatively assessing the antimicrobial activity of a compound in a liquid medium. The method used a 96-well microtitre plate, capable of holding about 200 μl of liquid per well. […] The culture media were as described above for the relevant test organisms.
(§6) The wells were inoculated with a liquid suspension of freshly grown micro-organism and incubated under the conditions described above. After incubation, the microtitre plate was examined visually (with the aid of a light box) for cell pellets in and/or opaque wells, which would indicate microbial growth. The MIC value was recorded as the lowest concentration of test compound required to inhibit microbial growth, ie, the lowest concentration for which the liquid in the well remained clear.
(§7) The assays were conducted in duplicate and included both negative (culture medium only) and positive (culture medium, diluting solvent and inoculum) controls.

P. granulosum PRP-005 = test: MIC assay; format: cell-based; conditions: P. granulosum PRP-005 (resistance MLSK)
Experimental: as §4, §5, §6, §7

P. granulosum PRP-043 = test: MIC assay; format: cell-based; conditions: P. granulosum PRP-043 (resistance MLS)
Experimental: as §4, §5, §6, §7

P. granulosum PRP-044 = test: MIC assay; format: cell-based; conditions: P. granulosum PRP-044 (resistance MLS)
Experimental: as §4, §5, §6, §7

P. granulosum PRP-055 = test: MIC assay; format: cell-based; conditions: P. granulosum PRP-055 (resistance None)
Experimental: as §4, §5, §6, §7

P. acnes PRP-010 [12] = test: MIC assay; format: cell-based, Propionibacterium acnes; conditions: Cutibacterium acnes, PRP010; P. acnes PRP-010 (resistance MLSK)
Experimental: (§8) Other propionibacterial strains were also tested, as described in Example 8 below. These included certain antibiotic resistant propionibacteria, such as the two P. acnes strains PRP-010 and PRP-053 which are resistant respectively to macrolides-lincosamides-streptogramins-ketolides (MLSK) and to macrolides-lincosamides-streptogramins (MLS) and tetracycline—in other words, PRP-010 is resistant to erythromycin and clindamycin, and […] to erythromycin, clindamycin and tetracycline.
as §4, §5, §6, §7

P. acnes PRP-053 [13] = test: MIC assay; format: cell-based, Propionibacterium acnes; conditions: Cutibacterium acnes, PRP053; P. acnes PRP-053 (resistance Tet/MLS)
Experimental: as §8, §4, §5, §6, §7

P. acnes PRP-010 [14] = test: Disc diffusion assay (DDA); format: cell-based, Propionibacterium acnes; conditions: zone diameter, 200 μg per disc
Experimental: as §8, §4, §2, §3

P. acnes PRP-053 [15] = test: Disc diffusion assay (DDA); format: cell-based, Propionibacterium acnes; conditions: zone diameter, 200 μg per disc
Experimental: as §8, §4, §2, §3

E faecalis ATCC 29212 = test: MBC assay; format: cell-based; conditions: Enterococcus faecalis, ATCC29212
Source text: 3. Enterococcus faecalis ATCC 29212—this is a Gram-positive bacterium belonging to the genus Enterococcus. Enterococci have similar properties to streptococci, but differ in their ability to grow on bile-salt containing media such as MacConkey's Agar. Their principal habitat is the mammalian gastrointestinal tract. They cause a number of important infections including endocarditis, urinary tract infections and abscesses. In the context of skin, they are frequently isolated from wound infections. Unlike the streptococci, the enterococci have developed widespread resistance to penicillin. More recently, E. faecalis and E. faecium strains have also developed resistance to the glycopeptide antibiotics such as vancomycin. Vancomycin-Resistant Enterococci (VRE), principally vanA strains of E. faecium, now represent a serious healthcare-acquired infection hazard in the USA, Japan and Western Europe.
as §1
This assay, normally carried out after an MIC assay, determines the minimum concentration of a compound that is lethal to the micro-organism being tested.
These samples were then individually sub-cultured on non-selective agar medium, under the incubation conditions described above. […]

SMILES | DDA [1] [mm] | DDA [2] [mm] | DDA [3] [mm] | DDA [4] [mm] | DDA [5] [mm] | DDA [6] [mm] | DDA [7] [mm] | DDA [8] [mm] | DDA [9] [mm] | DDA [10] [mm] | DDA [11] [mm] | MIC (P. granulosum NCTC 11865) [µg/mL] | MIC (P. granulosum PRP-005) [µg/mL] | MIC (P. granulosum PRP-043) [µg/mL] | MIC (P. granulosum PRP-044) [µg/mL] | MIC (P. granulosum PRP-055) [µg/mL] | MIC (P. acnes PRP-010 [12]) [µg/mL] | MIC (P. acnes PRP-053 [13]) [µg/mL] | DDA (P. acnes PRP-010 [14]) | DDA (P. acnes PRP-053 [15]) | further results
O=C(OOC(=O)c1ccccc1)c1ccccc1 [benzoyl peroxide] | 10.65 | 11.38 | 11.99 | 21.56 | 12.46 | 11.51 | 11.10 | 11.83 | 9.94 | 12.04 | 10.99 | 15.6 (≈ 64.4 µM) | 15.6 (≈ 64.4 µM) | 62.5 (≈ 258 µM) | 31.2 (≈ 129 µM) | 15.6 (≈ 64.4 µM) | 31.2 (≈ 129 µM) | 31.2 (≈ 129 µM) | 30.39 (±0.82) mm | 29.72 (±0.48) mm | MBC (E faecalis ATCC 29212; E faecalis ATCC 29212, read-out: MBC): > 250 µg/mL
CC(C)(C)c1cc(O)ccc1O [TBHQ, t-butyl hydroquinone] | 57.34 | 41.67 | 49.24 | 80.18 | 73.90 | 60.40 | 51.08 | 64.59 | 53.07 | 54.43 | 49.72 | 3.9 (≈ 23.5 µM) | 62.5 (≈ 376 µM) | 15.6 (≈ 93.9 µM) | 15.6 (≈ 93.9 µM) | 3.9 (≈ 23.5 µM) | 3.9 (≈ 23.5 µM) | 3.9 (≈ 23.5 µM) | 18.71 (±0.18) mm | 23.49 (±1.44) mm | MBC (E faecalis ATCC 29212): 31.2 µg/mL
